# Assay results as given in patent US9492496B2, “Aminothiazoles and their uses” (Novartis AG, priority 2007, dated 2016).
# Tested on: prokaryotic transcription-translation (E. coli S30 extract)
# Test: In vitro assay for inhibition of prokaryotic transcription-translation (Promega E. coli S30 Extract System, pBESTluc luciferase readout)
# Format: biochemical
# Details: 2 uM compound, 2 h at 37° C., luciferase luminescence
# Experimental: In vitro assay for inhibition of prokaryotic transcription-translation [as described in the following references: 1. Zubay, G. (1973) In vitro synthesis of protein in microbial systems. Annu. Rev. Genet. 7, 267.87. 2. Zubay, G. (1980) The isolation and properties of CAP, the catabolite gene activator. Meth. Enzymol. 65, 856.77]. Antibiotic and compound dilutions: stock solutions of compound to be assayed at 2 μM are 80 μM in 40% DMSO. Stock solutions of compounds to be assayed at 10 μM are 400 μM in 40% DMSO.
# Assay setup and protocol for Promega E. coli S30 Extract System
# The assay is performed as follows: pipet 3.5 μl of 286 ng/μl template DNA (pBESTluc™) into assay wells. Negative control wells receive sdH2O only. Transfer 0.5 μl of 40× compound stock solution to assay wells. Positive control wells (no compound) receive 0.5 μl 40% DMSO sdH2O. Pipet 16 μl of master mix into assay wells. Incubate plate for two hours at 37° C. Rapidly chill the assay plate on ice for five minutes to stop the reaction. Add an equal volume (20 μl) of room temperature Steady-Glo® Luciferase assay reagent to all assay wells. Incubate 20 minutes and read light emitted with luminometer. Results are reported as % inhibition a 2 μM or 10 μM.
row,Structure (SMILES),% inh. @ 2 uM
1,CNC(=O)C[C@@H]1NC(=O)c2csc(n2)-c2ccc(-c3nc(NC(=O)CC[C@H](CC(=O)O)C(=O)O)cs3)nc2-c2csc(n2)-c2csc(n2)[C@H]([C@@H](O)c2ccccc2)NC(=O)CNC(=O)c2nc(sc2COC)C(C(C)C)NC(=O)c2nc1sc2C (stereo partly shown) [Compound 1],2 uM = 65.4%
2,CNC(=O)C[C@@H]1NC(=O)c2csc(n2)-c2ccc(-c3nc(NC(=O)CC[C@@H](CC(=O)O)C(=O)O)cs3)nc2-c2csc(n2)-c2csc(n2)[C@H]([C@@H](O)c2ccccc2)NC(=O)CNC(=O)c2nc(sc2COC)C(C(C)C)NC(=O)c2nc1sc2C (stereo partly shown) [Compound 2],2 uM = 72.8%
3,CNC(=O)C[C@@H]1NC(=O)c2csc(n2)-c2ccc(-c3nc(N(CCCC(=O)O)C(=O)OCCCC(=O)O)cs3)nc2-c2csc(n2)-c2csc(n2)[C@H]([C@@H](O)c2ccccc2)NC(=O)CNC(=O)c2nc(sc2COC)C(C(C)C)NC(=O)c2nc1sc2C (stereo partly shown) [Compound 3],2 uM = 67.8%
4,CNC(=O)C[C@@H]1NC(=O)c2csc(n2)-c2ccc(-c3nc(N(CCCC(=O)O)C(=O)O[C@H]4CC[C@H](C(=O)O)CC4)cs3)nc2-c2csc(n2)-c2csc(n2)[C@H]([C@@H](O)c2ccccc2)NC(=O)CNC(=O)c2nc(sc2COC)C(C(C)C)NC(=O)c2nc1sc2C (stereo partly shown) [Compound 4],2 uM = 85.3%
5,CNC(=O)C[C@@H]1NC(=O)c2csc(n2)-c2ccc(-c3nc(N(CCCCCCC(=O)O)C(=O)O[C@H]4CC[C@H](C(=O)O)CC4)cs3)nc2-c2csc(n2)-c2csc(n2)[C@H]([C@@H](O)c2ccccc2)NC(=O)CNC(=O)c2nc(sc2COC)C(C(C)C)NC(=O)c2nc1sc2C (stereo partly shown) [Compound 5],2 uM = 78.5%
6,CNC(=O)C[C@@H]1NC(=O)c2csc(n2)-c2ccc(-c3nc(N(CCCCC(=O)O)C(=O)O[C@H]4CC[C@H](C(=O)O)CC4)cs3)nc2-c2csc(n2)-c2csc(n2)[C@H]([C@@H](O)c2ccccc2)NC(=O)CNC(=O)c2nc(sc2COC)C(C(C)C)NC(=O)c2nc1sc2C (stereo partly shown) [Compound 6],2 uM = 86.8%
7,CNC(=O)C[C@@H]1NC(=O)c2csc(n2)-c2ccc(-c3nc(N(CCCCCC(=O)O)C(=O)O[C@H]4CC[C@H](C(=O)O)CC4)cs3)nc2-c2csc(n2)-c2csc(n2)[C@H]([C@@H](O)c2ccccc2)NC(=O)CNC(=O)c2nc(sc2COC)C(C(C)C)NC(=O)c2nc1sc2C (stereo partly shown) [Compound 7],2 uM = 86.0%
8,CNC(=O)C[C@@H]1NC(=O)c2csc(n2)-c2ccc(-c3nc(N(CCCC(=O)O)C(=O)CCCCC(=O)O)cs3)nc2-c2csc(n2)-c2csc(n2)[C@H]([C@@H](O)c2ccccc2)NC(=O)CNC(=O)c2nc(sc2COC)C(C(C)C)NC(=O)c2nc1sc2C (stereo partly shown) [Compound 8],2 uM = 59.7%
9,CNC(=O)C[C@@H]1NC(=O)c2csc(n2)-c2ccc(-c3nc(N(CCCCC(=O)O)C(=O)O[C@H]4C[C@H](C(=O)O)C4)cs3)nc2-c2csc(n2)-c2csc(n2)[C@H]([C@@H](O)c2ccccc2)NC(=O)CNC(=O)c2nc(sc2COC)C(C(C)C)NC(=O)c2nc1sc2C (stereo partly shown) [Compound 9],2 uM = 67.1%
10,CNC(=O)C[C@@H]1NC(=O)c2csc(n2)-c2ccc(-c3nc(N(CCCCC(=O)O)C(=O)[C@H]4CC[C@H]4C(=O)O)cs3)nc2-c2csc(n2)-c2csc(n2)[C@H]([C@@H](O)c2ccccc2)NC(=O)CNC(=O)c2nc(sc2COC)C(C(C)C)NC(=O)c2nc1sc2C (stereo partly shown) [Compound 10],2 uM = 2.0%
11,CNC(=O)C[C@@H]1NC(=O)c2csc(n2)-c2ccc(-c3nc(NC(=O)N4C[C@H](CCC(=O)O)C[C@H](CCC(=O)O)C4)cs3)nc2-c2csc(n2)-c2csc(n2)[C@H]([C@@H](O)c2ccccc2)NC(=O)CNC(=O)c2nc(sc2COC)C(C(C)C)NC(=O)c2nc1sc2C (stereo partly shown) [Compound 11],2 uM = 92.3%
12,CNC(=O)C[C@@H]1NC(=O)c2csc(n2)-c2ccc(-c3nc(N(CCCC(=O)O)C(=O)CCCCCC(=O)O)cs3)nc2-c2csc(n2)-c2csc(n2)[C@H]([C@@H](O)c2ccccc2)NC(=O)CNC(=O)c2nc(sc2COC)C(C(C)C)NC(=O)c2nc1sc2C (stereo partly shown) [Compound 12],2 uM = 82.4%
13,CNC(=O)C[C@@H]1NC(=O)c2csc(n2)-c2ccc(-c3nc(N(CCCCC(=O)O)C(=O)OCc4ccc(C(=O)O)cn4)cs3)nc2-c2csc(n2)-c2csc(n2)[C@H]([C@@H](O)c2ccccc2)NC(=O)CNC(=O)c2nc(sc2COC)C(C(C)C)NC(=O)c2nc1sc2C (stereo partly shown) [Compound 13],2 uM = 74.9%
14,CNC(=O)C[C@@H]1NC(=O)c2csc(n2)-c2ccc(-c3nc(N(CCCC(=O)O)C(=O)c4ccc(C(=O)O)cn4)cs3)nc2-c2csc(n2)-c2csc(n2)[C@H]([C@@H](O)c2ccccc2)NC(=O)CNC(=O)c2nc(sc2COC)C(C(C)C)NC(=O)c2nc1sc2C (stereo partly shown) [Compound 14],2 uM = 55.5%
15,CNC(=O)C[C@@H]1NC(=O)c2csc(n2)-c2ccc(-c3nc(N(CCCC(=O)O)C(=O)C[C@H]4CC[C@H](C(=O)O)CC4)cs3)nc2-c2csc(n2)-c2csc(n2)[C@H]([C@@H](O)c2ccccc2)NC(=O)CNC(=O)c2nc(sc2COC)C(C(C)C)NC(=O)c2nc1sc2C (stereo partly shown) [Compound 15],2 uM = 64.5%
16,CNC(=O)C[C@@H]1NC(=O)c2csc(n2)-c2ccc(-c3nc(N(CCCCC(=O)O)C(=O)[C@H]4CC[C@H](C(=O)O)CC4)cs3)nc2-c2csc(n2)-c2csc(n2)[C@H]([C@@H](O)c2ccccc2)NC(=O)CNC(=O)c2nc(sc2COC)C(C(C)C)NC(=O)c2nc1sc2C (stereo partly shown) [Compound 16],2 uM = 64.3%
17,CNC(=O)C[C@@H]1NC(=O)c2csc(n2)-c2ccc(-c3nc(N(CCCCC(=O)O)C(=O)C[C@H]4CC[C@H](C(=O)O)CC4)cs3)nc2-c2csc(n2)-c2csc(n2)[C@H]([C@@H](O)c2ccccc2)NC(=O)CNC(=O)c2nc(sc2COC)C(C(C)C)NC(=O)c2nc1sc2C (stereo partly shown) [Compound 17],2 uM = 63.9%
18,CNC(=O)C[C@@H]1NC(=O)c2csc(n2)-c2ccc(-c3nc(N(CCCCC(=O)O)C(=O)N[C@H]4CC[C@H](C(=O)O)CC4)cs3)nc2-c2csc(n2)-c2csc(n2)[C@H]([C@@H](O)c2ccccc2)NC(=O)CNC(=O)c2nc(sc2COC)C(C(C)C)NC(=O)c2nc1sc2C (stereo partly shown) [Compound 18],2 uM = 52.7%
19,CNC(=O)C[C@@H]1NC(=O)c2csc(n2)-c2ccc(-c3nc(N(C/C=C/C(=O)O)C(=O)O[C@H]4CC[C@H](C(=O)O)CC4)cs3)nc2-c2csc(n2)-c2csc(n2)[C@H]([C@@H](O)c2ccccc2)NC(=O)CNC(=O)c2nc(sc2COC)C(C(C)C)NC(=O)c2nc1sc2C (stereo partly shown) [Compound 19],2 uM = 76.4%
20,CNC(=O)C[C@@H]1NC(=O)c2csc(n2)-c2ccc(-c3nc(N(CC(CC(=O)O)OC)C(=O)O[C@H]4CC[C@H](C(=O)O)CC4)cs3)nc2-c2csc(n2)-c2csc(n2)[C@H]([C@@H](O)c2ccccc2)NC(=O)CNC(=O)c2nc(sc2COC)C(C(C)C)NC(=O)c2nc1sc2C (stereo partly shown) [Compound 20],2 uM = 80.6%
21,CNC(=O)C[C@@H]1NC(=O)c2csc(n2)-c2ccc(-c3nc(N(CCCCC(=O)O)C(=O)N4CCC(C(=O)O)CC4)cs3)nc2-c2csc(n2)-c2csc(n2)[C@H]([C@@H](O)c2ccccc2)NC(=O)CNC(=O)c2nc(sc2COC)C(C(C)C)NC(=O)c2nc1sc2C (stereo partly shown) [Compound 21],2 uM = 37.4%
22,CNC(=O)C[C@@H]1NC(=O)c2csc(n2)-c2ccc(-c3nc(NC(=O)N(CCCC(=O)O)CCCC(=O)O)cs3)nc2-c2csc(n2)-c2csc(n2)[C@H]([C@@H](O)c2ccccc2)NC(=O)CNC(=O)c2nc(sc2COC)C(C(C)C)NC(=O)c2nc1sc2C (stereo partly shown) [Compound 22],2 uM = 79.8%
23,CNC(=O)C[C@@H]1NC(=O)c2csc(n2)-c2ccc(-c3nc(NC(=O)N(CCCC(=O)O)[C@H]4CC[C@H](C(=O)O)CC4)cs3)nc2-c2csc(n2)-c2csc(n2)[C@H]([C@@H](O)c2ccccc2)NC(=O)CNC(=O)c2nc(sc2COC)C(C(C)C)NC(=O)c2nc1sc2C (stereo partly shown) [Compound 23],2 uM = 79.8%
24,CNC(=O)C[C@@H]1NC(=O)c2csc(n2)-c2ccc(-c3nc(N(CCOCC(=O)O)C(=O)O[C@H]4CC[C@H](C(=O)O)CC4)cs3)nc2-c2csc(n2)-c2csc(n2)[C@H]([C@@H](O)c2ccccc2)NC(=O)CNC(=O)c2nc(sc2COC)C(C(C)C)NC(=O)c2nc1sc2C (stereo partly shown) [Compound 24],2 uM = 70.3%
25,CNC(=O)C[C@@H]1NC(=O)c2csc(n2)-c2ccc(-c3nc(N(CCCCC(=O)O)C(=O)O[C@H]4CC[C@](CCCCC(=O)O)(C(=O)OC)CC4)cs3)nc2-c2csc(n2)-c2csc(n2)[C@H]([C@@H](O)c2ccccc2)NC(=O)CNC(=O)c2nc(sc2COC)C(C(C)C)NC(=O)c2nc1sc2C (stereo partly shown) [Compound 25],2 uM = 83.7%
26,CNC(=O)C[C@@H]1NC(=O)c2csc(n2)-c2ccc(-c3nc(N(CCCCC(=O)O)C(=O)OC(CCCCC(=O)O)CCC(=O)O)cs3)nc2-c2csc(n2)-c2csc(n2)[C@H]([C@@H](O)c2ccccc2)NC(=O)CNC(=O)c2nc(sc2COC)C(C(C)C)NC(=O)c2nc1sc2C (stereo partly shown) [Compound 26],2 uM = 68.2%
27,CNC(=O)C[C@@H]1NC(=O)c2csc(n2)-c2ccc(-c3nc(N(CCCCC(=O)O)C(=O)OCC4CC4C(=O)O)cs3)nc2-c2csc(n2)-c2csc(n2)[C@H]([C@@H](O)c2ccccc2)NC(=O)CNC(=O)c2nc(sc2COC)C(C(C)C)NC(=O)c2nc1sc2C (stereo partly shown) [Compound 27],2 uM = 81.9%
28,CNC(=O)C[C@@H]1NC(=O)c2csc(n2)-c2ccc(-c3nc(N(CCCCC(CCC(=O)O)C(=O)O)C(=O)O[C@H]4CC[C@H](C(=O)O)CC4)cs3)nc2-c2csc(n2)-c2csc(n2)[C@H]([C@@H](O)c2ccccc2)NC(=O)CNC(=O)c2nc(sc2COC)C(C(C)C)NC(=O)c2nc1sc2C (stereo partly shown) [Compound 28],2 uM = 77.0%
